From patent US20240391931A1 (Bristol-Myers Squibb Company, priority 2021, published 2024) come the findings set out here.

Structures are written as SMILES.

Test [1] addresses T1, HER2 WT (Homo sapiens, UniProt P04626).
T1 construct: purchased ProQinase, Freiburg, Germany ERBB2 0108-0000-1
Kind of test: Enzymatic assay HER2 WT (method a). It counts as biochemical. The note with it: [HER2 WT]=12.5 nM, [ATP]=25 μM, [Peptide 22]=1 μM. Put shortly:
(§1)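 Initial rates over 0–3600 s, read as substrate-to-product conversion by capillary electrophoresis, were converted to percent inhibition and fitted with a variable-slope curve to give IC50. Conditions: EGFR WT 2 nM with 1 mM ATP; HER2 YVMA 5 nM or HER2 WT 12.5 nM, each with 25 μM ATP. All used 1 μM Peptide 22 in pH 7.5 HEPES/Mn/Mg buffer.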

For test [2], the target named is T2, EGFR WT (Homo sapiens, UniProt P00533).
T2 construct: purchased Thermo Fisher, Carlsbad, CA ERBB1 PR7295B
T2 sequence (P00533 25-1210): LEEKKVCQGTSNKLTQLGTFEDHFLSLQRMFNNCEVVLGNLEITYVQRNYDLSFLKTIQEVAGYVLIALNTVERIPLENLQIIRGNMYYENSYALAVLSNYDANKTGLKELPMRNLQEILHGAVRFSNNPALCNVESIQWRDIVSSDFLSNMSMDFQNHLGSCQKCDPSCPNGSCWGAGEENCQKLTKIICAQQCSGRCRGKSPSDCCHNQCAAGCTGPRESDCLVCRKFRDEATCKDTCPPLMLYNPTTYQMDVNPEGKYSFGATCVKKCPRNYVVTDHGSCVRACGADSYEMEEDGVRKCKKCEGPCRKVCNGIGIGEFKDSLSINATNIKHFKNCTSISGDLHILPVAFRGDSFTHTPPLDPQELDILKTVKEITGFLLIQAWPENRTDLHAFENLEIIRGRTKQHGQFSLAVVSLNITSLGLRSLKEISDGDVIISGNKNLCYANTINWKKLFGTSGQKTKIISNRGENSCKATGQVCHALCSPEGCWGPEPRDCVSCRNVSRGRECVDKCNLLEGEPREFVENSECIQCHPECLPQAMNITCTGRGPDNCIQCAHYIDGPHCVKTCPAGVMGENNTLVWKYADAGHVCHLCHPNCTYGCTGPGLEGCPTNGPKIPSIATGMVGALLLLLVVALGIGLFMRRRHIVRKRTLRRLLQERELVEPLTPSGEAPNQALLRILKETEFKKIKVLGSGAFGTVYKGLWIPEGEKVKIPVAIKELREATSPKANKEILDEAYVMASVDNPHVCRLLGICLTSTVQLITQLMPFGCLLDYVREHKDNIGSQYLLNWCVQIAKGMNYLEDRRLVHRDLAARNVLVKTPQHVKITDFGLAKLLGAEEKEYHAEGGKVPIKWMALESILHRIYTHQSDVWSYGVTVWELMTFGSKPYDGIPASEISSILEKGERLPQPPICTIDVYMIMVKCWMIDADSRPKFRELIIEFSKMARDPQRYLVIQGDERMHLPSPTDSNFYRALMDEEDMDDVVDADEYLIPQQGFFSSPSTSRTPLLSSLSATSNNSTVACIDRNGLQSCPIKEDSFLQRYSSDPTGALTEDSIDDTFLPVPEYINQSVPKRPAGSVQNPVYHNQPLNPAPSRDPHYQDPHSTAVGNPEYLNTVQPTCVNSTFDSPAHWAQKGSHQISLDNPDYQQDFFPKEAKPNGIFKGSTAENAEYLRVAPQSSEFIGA
The test is described as follows: Enzymatic assay EGFR WT (method c). The note with it: [EGFR WT]=2 nM, [ATP]=1 mM, [Peptide 22]=1 μM. Type of test: biochemical. Put shortly: as §1

T1 sequence (P04626 23-1255): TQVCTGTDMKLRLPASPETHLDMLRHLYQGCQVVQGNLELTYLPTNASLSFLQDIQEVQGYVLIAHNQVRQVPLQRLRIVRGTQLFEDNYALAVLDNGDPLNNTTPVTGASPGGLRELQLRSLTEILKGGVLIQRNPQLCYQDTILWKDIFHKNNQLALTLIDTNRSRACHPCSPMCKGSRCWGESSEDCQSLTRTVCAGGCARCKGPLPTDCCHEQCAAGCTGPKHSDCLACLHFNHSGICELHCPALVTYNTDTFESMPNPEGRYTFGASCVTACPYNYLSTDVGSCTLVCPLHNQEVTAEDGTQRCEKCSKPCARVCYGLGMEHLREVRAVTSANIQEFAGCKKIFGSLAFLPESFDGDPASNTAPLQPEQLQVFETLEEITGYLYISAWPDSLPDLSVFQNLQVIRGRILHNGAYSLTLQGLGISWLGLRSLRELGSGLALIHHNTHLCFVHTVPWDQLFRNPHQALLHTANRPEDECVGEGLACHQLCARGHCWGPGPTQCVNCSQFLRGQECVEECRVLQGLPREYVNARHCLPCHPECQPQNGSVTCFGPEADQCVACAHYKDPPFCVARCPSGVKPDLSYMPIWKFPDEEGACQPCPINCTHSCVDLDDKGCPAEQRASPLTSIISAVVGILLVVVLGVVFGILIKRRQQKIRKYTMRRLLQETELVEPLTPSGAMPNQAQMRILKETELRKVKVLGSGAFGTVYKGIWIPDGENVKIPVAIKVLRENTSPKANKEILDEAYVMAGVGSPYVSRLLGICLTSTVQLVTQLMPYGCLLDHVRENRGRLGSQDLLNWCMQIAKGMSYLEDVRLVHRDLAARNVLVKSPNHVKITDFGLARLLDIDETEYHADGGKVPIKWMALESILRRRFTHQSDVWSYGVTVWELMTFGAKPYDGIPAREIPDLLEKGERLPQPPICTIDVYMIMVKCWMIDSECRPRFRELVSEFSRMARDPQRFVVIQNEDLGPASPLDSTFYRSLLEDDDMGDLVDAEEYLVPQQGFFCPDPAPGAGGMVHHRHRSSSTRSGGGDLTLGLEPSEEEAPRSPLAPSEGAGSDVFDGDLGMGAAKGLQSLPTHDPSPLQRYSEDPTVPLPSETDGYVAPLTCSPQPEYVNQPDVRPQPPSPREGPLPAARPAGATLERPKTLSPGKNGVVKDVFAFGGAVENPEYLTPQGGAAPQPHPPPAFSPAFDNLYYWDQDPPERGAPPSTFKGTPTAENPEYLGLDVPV

As to `Cc1cc(Nc2ncnc3sc4c(c23)CCN(C(=O)/C=C/CN(C)C)C4)ccc1Oc1ccc2cn[nH]c2c1` [Compound 23, (E)-1-(4-((4-((1H-indazol-6-yl)oxy)-3-methylphenyl)amino)-5,8-dihydropyrido[4′,3′:4,5]thieno[2,3-d]pyrimidin-7(6H)-yl)-4-(dimethylamino)but-2-en-1-one], the IC50 in test [1] is < 100 nM; in test [2], 1000 to 10000 nM.

Regarding `Cc1cc(Nc2ncnc3sc4c(c23)CCN(C(=O)/C=C/CN2CC(C)(C)OC(C)(C)C2)C4)ccc1Oc1ccc2ncnn2c1` [Compound 84], the values for the IC50 in test [1] and in test [2] were 100 to 1000 nM and > 10000 nM, respectively.

For the molecule `Cc1cc(Nc2ncnc3sc4c(c23)CCN(C(=O)/C=C/CN(C)C)C4)ccc1Oc1ccc2ncnn2c1` [Compound 3, (E)-1-(4-((4-([1,2,4]triazolo[1,5-a]pyridin-6-yloxy)-3-methylphenyl)amino)-5,8-dihydropyrido[4′,3′:4,5]thieno[2,3-d]pyrimidin-7(6H)-yl)-4-(dimethylamino)but-2-en-1-one], the 50% inhibitory concentration (IC50) in test [1] is < 100 nM; in test [2], 1000 to 10000 nM.

As to `Cc1ccc(Oc2ccc(Nc3ncnc4sc5c(c34)CN(C(=O)/C=C/CN(C)C)C5)cc2C)cn1` [Compound 99, (E)-4-(dimethylamino)-1-(4-((3-methyl-4-((6-methylpyridin-3-yl)oxy)phenyl)amino)-5,7-dihydro-6H-pyrrolo[3′,4′:4,5]thieno[2,3-d]pyrimidin-6-yl)but-2-en-1-one], the half-maximal inhibitory concentration (IC50) is 100 to 1000 nM in test [1] and > 10000 nM in test [2].

Turning to `Cc1ccc(Oc2ccc(Nc3ncnc4sc5c(c34)CCN(C(=O)/C=C/CN[C@H]3CCC[C@H](O)C3)C5)cc2C)cn1` [Compound 73], the IC50 in test [1] was < 100 nM; in test [2], 1000 to 10000 nM.

Take `CNC(=O)CNC/C=C/C(=O)N1CCc2c(sc3ncnc(Nc4ccc(Oc5ccc(C)nc5)c(C)c4)c23)C1` [Compound 39]: the concentration for half-maximal inhibition (IC50) is < 100 nM in test [1] and > 10000 nM in test [2].

Regarding `CCN1CCN(C/C=C/C(=O)N2CCc3c(sc4ncnc(Nc5ccc(Oc6ccc(C)nc6)c(C)c5)c34)C2)CC1` [Compound 46], the IC50 in test [1] is 100 to 1000 nM; in test [2] it was > 10000 nM.

Turning to `Cc1cc(Nc2ncnc3sc4c(c23)CCN(C(=O)/C=C/CN(C)C)C4)ccc1Oc1cccc(B(O)O)c1` [Compound 64, (E)-(3-(4-((7-(4-(dimethylamino)but-2-enoyl)-5,6,7,8-tetrahydropyrido[4′,3′:4,5]thieno[2,3-d]pyrimidin-4-yl)amino)-2-methylphenoxy)phenyl)boronic acid], the IC50 is < 100 nM in test [1] and 1000 to 10000 nM in test [2].

On to `Cc1cc(Nc2ncnc3sc4c(c23)CCN(C(=O)/C=C/CN2CC(C)OC(C)C2C)C4)ccc1Oc1ccc2ncnn2c1` (stereo not shown) [Compound 83], for which the IC50 in test [1] is 100 to 1000 nM; in test [2], > 10000 nM.

Regarding `C=CC(=O)N1CCc2[nH]c3ncnc(Nc4ccc(Oc5ccc(C)nc5)c(C)c4)c3c2C1` [Compound 94, 1-(4-((3-methyl-4-((6-methylpyridin-3-yl)oxy)phenyl)amino)-7,8-dihydro-5H-pyrido[3′,4′:4,5]pyrrolo[2,3-d]pyrimidin-6(9H)-yl)prop-2-en-1-one], the IC50 in test [1] was < 100 nM; in test [2], > 10000 nM.

On to `Cc1cc(Nc2ncnc3sc4c(c23)CCN(C(=O)/C=C/CN(C)C)C4)ccc1Oc1ccc2nonc2c1` [Compound 104, (E)-1-(4-((4-(Benzo[c][1,2,5]oxadiazol-5-yloxy)-3-methylphenyl)amino)-5,6-dihydropyrido[4′,3′:4,5]thieno[2,3-d]pyrimidin-7(8H)-yl)-4-(dimethylamino)but-2-en-1-one], for which the figures for the IC50 in test [1] and in test [2] were < 100 nM and > 10000 nM, respectively.

Consider `O=C(/C=C/CN1CC2CC1CO2)N1CCc2c(sc3ncnc(Nc4ccc(Oc5ccc6ncnn6c5)c(Cl)c4)c23)C1` (stereo not shown) [Compound 87], for which the IC50 in test [1] is < 100 nM; in test [2], 1000 to 10000 nM.

Consider `Cc1ccc(Oc2ccc(Nc3ncnc4sc5c(c34)CCN(C(=O)/C=C/CNCCS(C)(=O)=O)C5)cc2C)cn1` [Compound 45], for which the half-inhibitory concentration (IC50) in test [1] was < 100 nM; in test [2], > 10000 nM.

In the case of `O=C(/C=C/CN1CC2CCC(C2)C1)N1CCc2c(sc3ncnc(Nc4ccc(Oc5ccc6ncnn6c5)c(Cl)c4)c23)C1` [Compound 88], the IC50 in test [1] is < 100 nM; in test [2], > 10000 nM.

As for `Cc1ccc(Oc2ccc(Nc3ncnc4sc5c(c34)CCN(C(=O)/C=C/CN3CCC4(CCOC4)C3)C5)cc2C)cn1` (stereo not shown) [Compound 67], the IC50 is < 100 nM in test [1] and > 10000 nM in test [2].

With `Cc1ccc(Oc2ccc(Nc3ncnc4sc5c(c34)CCN(C(=O)/C=C/CN3C4CCC3CC4)C5)cc2C)cn1` [Compound 44], the IC50 is < 100 nM in test [1] and 1000 to 10000 nM in test [2].

As for `C=CC(=O)N1CCc2c(sc3ncnc(Nc4ccc(Oc5ccc6ncnn6c5)c(Cl)c4)c23)C1` [Compound 4, 1-(4-((4-([1,2,4]triazolo[1,5-a]pyridin-6-yloxy)-3-chlorophenyl)amino)-5,8-dihydropyrido[4′,3′:4,5]thieno[2,3-d]pyrimidin-7(6H)-yl)prop-2-en-1-one], the IC50 is < 100 nM in test [1] and > 10000 nM in test [2].

Regarding `Cc1cc(Nc2ncnc3sc4c(c23)CCN(C(=O)/C=C/CN(C)C)C4)ccc1Oc1ccc2[nH]ncc2c1` [Compound 22, (E)-1-(4-((4-((1H-indazol-5-yl)oxy)-3-methylphenyl)amino)-5,8-dihydropyrido[4′,3′:4,5]thieno[2,3-d]pyrimidin-7(6H)-yl)-4-(dimethylamino)but-2-en-1-one], the IC50 in test [1] is < 100 nM; in test [2], 1000 to 10000 nM.

With `Cc1ccc(Oc2ccc(Nc3ncnc4sc5c(c34)CCN(C(=O)/C=C/CN3CC4C(CO)C4C3)C5)cc2C)cn1` (stereo not shown) [Compound 34], the IC50 in test [1] was < 100 nM; in test [2] it was > 10000 nM.

Regarding `Cc1cc(Nc2ncnc3sc4c(c23)CCN(C(=O)/C=C/CN2CC3CC(C3)C2)C4)ccc1Oc1ccc2ncnn2c1` [Compound 82], the half-inhibitory concentration (IC50) in test [1] was < 100 nM; in test [2], > 10000 nM.

With `Cc1ccc(Oc2ccc(Nc3ncnc4sc5c(c34)C(C)CN(C(=O)/C=C/CN(C)C)C5)cc2C)cn1` (stereo not shown) [Compound 98, (E)-4-(dimethylamino)-1-(5-methyl-4-((3-methyl-4-((6-methylpyridin-3-yl)oxy)phenyl)amino)-5,8-dihydropyrido[4′,3′:4,5]thieno[2,3-d]pyrimidin-7(6H)-yl)but-2-en-1-one], the values for the IC50 in test [1] and in test [2] were < 100 nM and > 10000 nM, respectively.

On to `Cc1ccc(Oc2ccc(Nc3ncnc4sc5c(c34)CCN(C(=O)/C=C/CN[C@H]3CC[C@H](OCC(F)(F)F)CC3)C5)cc2C)cn1` [Compound 70], for which the IC50 is < 100 nM in test [1] and 1000 to 10000 nM in test [2].

As to `Cc1ccc(Oc2ccc(Nc3ncnc4sc5c(c34)CCN(C(=O)/C=C/CN3CC4CC4C3)C5)cc2C)cn1` (stereo not shown) [Compound 76], the IC50 is < 100 nM in test [1] and 1000 to 10000 nM in test [2].

As for `O=C(/C=C/CN1CC2C(CO)C2C1)N1CCc2c(sc3ncnc(Nc4ccc(Oc5ccc6ncnn6c5)c(Cl)c4)c23)C1` (stereo not shown) [Compound 92], the IC50 in test [1] was < 100 nM; in test [2] it was > 10000 nM.

Take `Cc1ccc(Oc2ccc(Nc3ncnc4sc5c(c34)CCN(C(=O)/C=C/CN3CC4(C3)CS(=O)(=O)C4)C5)cc2C)cn1` [Compound 57]: the IC50 in test [1] was < 100 nM; in test [2], > 10000 nM.

`Cc1ccc(Oc2ccc(Nc3ncnc4sc5c(c34)CCN(C(=O)/C=C/CNC3COC3)C5)cc2C)cn1` [Compound 38]: the IC50 is < 100 nM in test [1] and > 10000 nM in test [2].

Consider `Cc1ccc(Oc2ccc(Nc3ncnc4sc5c(c34)CCN(C(=O)/C=C/CN3C[C@H]4CC[C@@H](C3)O4)C5)cc2C)cn1` [Compound 66], for which the values for the IC50 in test [1] and in test [2] were < 100 nM and > 10000 nM, respectively.

Take `Cc1ccc(Oc2ccc(Nc3ncnc4sc5c(c34)CCN(C(=O)/C=C/CNC3CCOC3)C5)cc2C)cn1` (stereo not shown) [Compound 47]: the IC50 in test [1] is < 100 nM; in test [2], 1000 to 10000 nM.

Regarding `Cc1ccc(Oc2ccc(Nc3ncnc4sc5c(c34)CCN(C(=O)/C=C/CN[C@H]3CC[C@H](OC4CC4)CC3)C5)cc2C)cn1` [Compound 68], the IC50 in test [1] was < 100 nM; in test [2], > 10000 nM.

Turning to `Cc1ccc(Oc2ccc(Nc3ncnc4sc5c(c34)CCN(C(=O)/C=C/CNC3CCC(C(=O)N(C)C)CC3)C5)cc2C)cn1` (stereo not shown) [Compound 71], the IC50 in test [1] was < 100 nM; in test [2] it was 1000 to 10000 nM.

Consider `Cc1ccc(Oc2ccc(Nc3ncnc4sc5c(c34)CCN(C(=O)/C=C/CN(C)C(C)(C)C)C5)cc2C)cn1` [Compound 33], for which the IC50 in test [1] is < 100 nM; in test [2], > 10000 nM.

With `Cc1ccc(Oc2ccc(Nc3ncnc4sc5c(c34)CCN(C(=O)/C=C/CN3CCCC3C(N)=O)C5)cc2C)cn1` (stereo not shown) [Compound 41], the IC50 in test [1] is < 100 nM; in test [2], 1000 to 10000 nM.

On to `Cc1ccc(Oc2ccc(Nc3ncnc4sc5c(c34)CCN(C(=O)/C=C/CN[C@@H](C)CO)C5)cc2C)cn1` [Compound 75], for which the IC50 in test [1] is < 100 nM; in test [2] it was 1000 to 10000 nM.

`C=CC(=O)N1CCc2[nH]c3ncnc(Nc4ccc(Oc5ccc6ncnn6c5)c(C)c4)c3c2C1` [Compound 102, 1-(4-((4-([1,2,4]triazolo[1,5-a]pyridin-6-yloxy)-3-methylphenyl)amino)-5,7,8,9-tetrahydro-6H-pyrido[3′,4′:4,5]pyrrolo[2,3-d]pyrimidin-6-yl)prop-2-en-1-one]: the values for the IC50 in test [1] and in test [2] were < 100 nM and > 10000 nM, respectively.

In the case of `CN(C)C/C=C/C(=O)N1CCc2c(sc3ncnc(Nc4ccc(Oc5ccc6ncnn6c5)c(Cl)c4)c23)C1` [Compound 5, (E)-1-(4-((4-([1,2,4]triazolo[1,5-a]pyridin-6-yloxy)-3-chlorophenyl)amino)-5,8-dihydropyrido[4′,3′:4,5]thieno[2,3-d]pyrimidin-7(6H)-yl)-4-(dimethylamino)but-2-en-1-one], the IC50 in test [1] is < 100 nM; in test [2], > 10000 nM.

A word on the IC50: it is the concentration that inhibits the measured activity by half. Lower therefore signals inhibition by little substance.
